Results reported in patent US20260000728A1, “PEPTIDE HAVING ACE INHIBITORY ACTIVITY AND COMPOSITION CONTAINING THE SAME” (Vedan International (Holdings) Limited, priority 2024, published 2026).

System: Spontaneously hypertensive rats (SHR)
Assay: Animal Test (2): 8-week feeding, weekly blood pressure in SHR
Format: in vivo, rat
Settings: PC group, 1 mg/kg
Protocol: Six-week-old spontaneously hypertensive rats (SHR) were divided into 5 groups, each receiving the corresponding treatment stated below: • Negative control group (NC group): feeding with water • Positive control group (PC group): feeding with hypertension drug Captopril at 1 mg/kg • Low-dose group (L group): feeding with the peptide composition disclosed herein at a dose of 50 mg/kg • Medium-dose group (M group): feeding with the peptide composition disclosed herein at a dose of 100 mg/kg • High-dose group (H group): feeding with the peptide composition disclosed herein at a dose of 200 mg/kg
The experiment lasted for a total of 8 weeks.

## C[C@H](CS)C(=O)N1CCC[C@H]1C(=O)O [Captopril]
Week 0
  Diastolic blood pressure: 80.2 ± 6.5 mmHg
  Systolic blood pressure: 111.0 ± 7.2 mmHg
Week 1
  Diastolic blood pressure: 79.9 ± 6.3 mmHg
  Systolic blood pressure: 110.2 ± 5.8 mmHg
Week 2
  Diastolic blood pressure: 79.0 ± 5.3 mmHg
  Systolic blood pressure: 108.8 ± 4.2 mmHg
Week 3
  Diastolic blood pressure: 78.9 ± 6.4 mmHg
  Systolic blood pressure: 108.6 ± 4.3 mmHg
Week 4
  Diastolic blood pressure: 78.9 ± 3.9 mmHg
  Systolic blood pressure: 108.4 ± 3.9 mmHg
Week 5
  Diastolic blood pressure: 78.8 ± 3.8 mmHg
  Systolic blood pressure: 108.1 ± 4.1 mmHg
Week 6
  Diastolic blood pressure: 78.8 ± 3.2 mmHg
  Systolic blood pressure: 108.1 ± 2.0 mmHg
Week 7
  Diastolic blood pressure: 78.8 ± 5.0 mmHg
  Systolic blood pressure: 108.0 ± 3.1 mmHg
Week 8
  Diastolic blood pressure: 78.8 ± 2.9 mmHg
  Systolic blood pressure: 108.0 ± 2.5 mmHg
